Experimental data published in US20220193111A1, “Method of Treatment” (The University Court of the University of Edinburgh, priority 2018, published 2022).

Test system: HUVECs treated with TNF-α/IL-1β
Experiment: Rescue of TNF-α/IL-1β-induced EndMT in HUVECs
Format: cell-based, human
Conditions: 10 μM, HUVECs with TNF-α/IL-1β 6 days
Protocol: Human umbilical vein ECs (HUVECs; Lonza) were grown in EGM-2 (comprising EBM-2 with growth factors and other supplements) with 2% Foetal Bovine Serum. Confluent HUVECs were treated with 10 ng/ml TNF-α, IL-1β, TGFβ2 (PeproTech); medium and cytokines were changed every two days. SB431542 (Tocris) has been used at the dose of 10 μM. HEK293T cells (ATCC®, CRL-11268) were cultured in D-MEM with 10% FBS (Life Technologies).
Total RNA was extracted using miReasy kit (Qiagen). Real-time quantification to measure miRNAs was performed with the TaqMan miRNA reverse transcription kit and miRNA assay (Life Technology) using Lightcycler 480 (Roche). miRNAs expression was normalized to the U6 […] (snRU6). For mRNA analysis, cDNA was amplified by quantitative real-time PCR (qPCR) and normalized to 18S ribosomal RNA. Each reaction was performed in triplicate. Quantification was performed by the 2^−ΔΔCt method^52. qPCR was used to measure the expression of miR-148b (miR-148b-3p Thermo Fisher Scientific, Cat. #4426961), snRU6 (ThermoFisher Scientific, Cat. #4331182), TGFβ2, SMAD2, CD31, VE-Cadherin, COL1A1, α-SMA, SLUG, VIM, SNAIL, TWIST, ZEB1/2 and 18S rRNA. Primers are pre-designed from Sigma (KiCgStart™ Primers).
Lipofectamine RNAiMAX (Thermo Fisher Scientific) was used to transfect HUVECs with miR-148b mimic, anti-miR-148b and mimic or anti-miR control (25 nM and […], respectively final concentration) or with siRNA targeting SMAD2 (20 nM final concentration), according to the manufacturer's instructions. jetPEI-HUVECs (Polyplus) was used to transfect HUVECs with DNA plasmids. The following functional assays were performed: BrdU incorporation assay using Cell Proliferation colorimetric assay (Roche); Matrigel assay with HUVECs was performed as previously described using BD Matrigel Basement Membrane Matrix (BD Biosciences)^53.
Proteins were extracted from cultured cells or muscles by using ice-cold buffer A (50 mM Hepes, 150 mM NaCl, 1 mM EDTA, 1 mM EGTA, 25 mM NaF, 5 mM NaPPi, 1%Triton, 1% NP40, 1 mM Na3VO4, 0.25% sodium deoxycholate, 0.5 mM Na-orthovanadate, 1 mM benzamidine, 0.1 mM phenylmethylsulfonyl fluoride). Protein concentration was determined using the Bio-Rad Protein Assay Reagent (Bio-Rad Laboratories, UK). Detection of proteins by Western blot analyses was done following separation of whole cell extracts (20 μg) on SDS-polyacrylamide gels. Proteins were transferred to nitrocellulose membranes and probed with the following antibodies: TGFβ2 (Abcam, ab36495, 1:1000), SMAD2 (SantaCruz Biotechnology, Santa Cruz, Calif., USA; #3102, 1:1000), p-SMAD2 (465/467) (Cell Signaling; #3108, 1:1000); CD31 (Abcam., 1:1000), VE-Cadherin (Abcam, ab33168, 1:1000), COL1A1 (Abcam, ab138492, 1:200), FSP-1 (5100A4; Abcam, ab41532, 1:1000), SLUG (Abcam, ab27568, 1:1000), β-actin (Abcam, ab16039, 1:4000), HDAC3 (GeneTex GTX113303, 1:1000) and GAPDH (GeneTex, GT239, 1:1000) (both used as loading control). For detection, the inventors used secondary antibodies conjugated to horseradish peroxidase which were rabbit anti-mouse (Abcam, ab97046, 1:5000) and goat anti-rabbit (Abcam, ab6721, 1:10000). Detection was developed by chemiluminescence reaction (ECL) (Immunoblot, Millipore, 23225).
Cells were fixed using 4% paraformaldehyde in PBS at room temperature for 15 min. For intracellular staining, fixed cells were permeabilized using 0.5% Triton X-100 in PBS (Sigma-Aldrich) or 0.1% Saponin in PBS at room temperature for 10 min. The blocking of […] antibody activity was performed using 3% bovine serum albumin (BSA) in PBS for 1 hour. Samples were incubated with antibodies to CD31 (Abcam, ab28364, 1:50), VE-cadherin (Abcam, ab33168, 1:100), FSP-1 (Abcam, ab41532, 1:200) and COL1A1 (Abcam, ab138492, 1:100) in PBS containing 1% BSA at 4° C. overnight. […]

NC(=O)c1ccc(-c2nc(-c3ccc4c(c3)OCO4)c(-c3ccccn3)[nH]2)cc1 [SB431542, reference compound]
endothelial markers (CD31, VE-Cadherin) expression: did not rescue
level of SMAD2 phosphorylation: reduced
endothelial markers (CD31, VE-Cadherin) expression (listed as SB43152): did not restore
